How the values were obtained:
NF-κB activation = assay: Inflammasome priming by LPS in THP-1 cells (immunoblot); type: cell-based, human; conditions: for NF-κB activation / pro-IL-1β induction: 30 μM, 1 hr before LPS; for NLRP3 induction: 1 hour before LPS
Procedure: Immunoblot analysis: cell extracts were prepared using RIPA buffer (50 mM Tris-HCl pH 7.4, 150 mM NaCl, 1 mM EDTA, 1% Triton X-100, 0.1% SDS, 0.5% deoxycholate) supplemented with a complete protease inhibitor cocktail (Roche) and a PhosSTOP phosphatase inhibitor cocktail (Roche). Samples were subjected to SDS-PAGE and the resolved proteins were then transferred to a PVDF membrane (Millipore). Immunoblots were probed with indicated antibodies and visualized using a SuperSignal West Pico chemiluminescence ECL kit (Pierce).
Because both disulfiram and Bay 11-7082 non-specifically modify reactive Cys, their effects on the steps leading to pyroptosis and inflammatory caspase activation were next analyzed. Some of the genes that participate in the canonical inflammasome pathway are not expressed in unstimulated cells and their expression needs to be induced, often by binding to cell surface sensors of pathogen and danger-associated molecular patterns, such as Toll-like receptors (TLR), in a process called priming. Bay 11-7082 is known to inhibit NF-κB activation, a key transcription factor in priming. The effect of disulfiram and Bay 11-7082 on priming were first examined (FIG. 45). NF-κB activation was assessed by examining IκBα phosphorylation and degradation and RelA (p65) phosphorylation. Induction of pro-IL-1β was assessed by immunoblot for pro-IL1β protein. In the absence of disulfiram or Bay 11-7082, phosphorylation of p65 was first detected 30 min after adding LPS and persisted for 4 hrs, phosphorylation and reduced IκBα. were detected 1 hr after adding LPS, and increased pro-IL-1β was detected 4 hrs after adding LPS. […] Thus, disulfiram and Bay 11-7082 both inhibit priming.
(§1) Cell death was determined by CytoTox96 assay. […] Cell death was determined by CytoTox96 assay. […] Shown are immunoblots of whole cell lysates harvested 0.5 hr later. […] Representative images of ASC specks (arrowheads) and mean±s.d. percent of cells with ASC specks analyzed 20 min later (FIG. 47). Whole cell lysates (WCL) and culture supernatants (Sup) were harvested 30 min after adding nigericin and immunoblotted with the indicated antibodies (FIG. 50). Caspase-1 activity was assayed 30 min after adding nigericin using a cell-permeable fluorescence dye FAM-YVAD-FMK (FIG. 52). […] Representative images of ASC specks (arrowheads) and mean±s.d. percent of cells with ASC specks analyzed 20 min later (FIGS. 48 and 49). Whole cell lysates (WCL) and culture supernatants (Sup), harvested 30 min after adding nigericin, were analyzed by immunoblot (FIG. 51). […] The Figures show representative confocal microscopy images and quantification of proportion of cells with GSDMD membrane staining and pyroptotic bubbles. Arrows indicate GSDMD staining of pyroptotic bubbles. […] FIGS. 57 and 58, dose response curve of the effect of Bay 11-7082 on caspase-1 (FIG. 57) and caspase-11 (FIG. 58) activity against a fluorescent peptide substrate. FIGS. 59 and 60 show MS/MS spectra of the Cys191-containing GSDMD peptide […] (FIG. 60). FIGS. 61 and 62 show dose response curve of the effect of Bay 11-7082 on liposome leakage induced by 0.3 μM human GSDMD-3C (FIG. 61) or mouse GSDMA3-3C (FIG. 62) plus 0.15 μM 3C protease. […] 2-fold dilutions of Bay 11-7082 from 5-40 μM were used. Graphs show the mean±s.d; data are representative of three independent experiments. *P<0.05, **P<0.01.
To elucidate the cellular mechanism of pyroptosis inhibition by disulfiram, its effects on the entire inflammasome activation pathway were analyzed. Some of the genes that participate in the canonical inflammasome pathway are not expressed in unstimulated cells and their expression needs to be induced, often by binding to cell surface sensors of pathogen and danger-associated molecular patterns, such as Toll-like receptors (TLR), in a process called priming. […]

caspase-1 = assay: Caspase-1 activity assay in cells (FAM-YVAD-FMK); type: cell-based, human; conditions: 30 μM, 30 min after nigericin
Procedure: Caspase-1 activity assay in cells: to measure caspase-1 activation, THP-1 cells were seeded into 96-well plates and differentiated with PMA. After the indicated treatments, cells were incubated with a fluorescent active caspase-1 substrate FAM-YVAD-FMK (Immunochemistry Technologies). Samples were read on a BioTek Synergy 2 plate reader.
as §1, with “substrate.” for “substrate. FIGS. 59 and 60 show MS/MS spectra of the Cys191-containing GSDMD peptide”

Row | SMILES | NF-κB activation (NF-κB activation) | pro-IL-1β induction (NF-κB activation; listed as disulfiram) | NLRP3 induction (NF-κB activation) | caspase-1 activity in intact cells (caspase-1) | pro-IL-1β induction (NF-κB activation)
1 | CCN(CC)C(=S)SSC(=S)N(CC)CC [C-23, Tetraethylthiuram disulfide] | inhibited NF-κB activation | blocked pro-IL-1β induction | blocked | only partially reduced | 
2 | Cc1ccc(S(=O)(=O)/C=C/C#N)cc1 [Bay 11-7082] | had a stronger effect |  | blocked | only partially reduced | blocked pro-IL-1β induction

From patent US20210267996A1, “Compounds for inhibition of inflammation” (Children`s Medical Center Corporation, priority 2018, published 2021)
